A word on the IC50: it is the concentration needed to halve the response being measured. Read a low IC50 as higher potency.

Sequence of ROCK2 (O75116 whole entry, species assumed): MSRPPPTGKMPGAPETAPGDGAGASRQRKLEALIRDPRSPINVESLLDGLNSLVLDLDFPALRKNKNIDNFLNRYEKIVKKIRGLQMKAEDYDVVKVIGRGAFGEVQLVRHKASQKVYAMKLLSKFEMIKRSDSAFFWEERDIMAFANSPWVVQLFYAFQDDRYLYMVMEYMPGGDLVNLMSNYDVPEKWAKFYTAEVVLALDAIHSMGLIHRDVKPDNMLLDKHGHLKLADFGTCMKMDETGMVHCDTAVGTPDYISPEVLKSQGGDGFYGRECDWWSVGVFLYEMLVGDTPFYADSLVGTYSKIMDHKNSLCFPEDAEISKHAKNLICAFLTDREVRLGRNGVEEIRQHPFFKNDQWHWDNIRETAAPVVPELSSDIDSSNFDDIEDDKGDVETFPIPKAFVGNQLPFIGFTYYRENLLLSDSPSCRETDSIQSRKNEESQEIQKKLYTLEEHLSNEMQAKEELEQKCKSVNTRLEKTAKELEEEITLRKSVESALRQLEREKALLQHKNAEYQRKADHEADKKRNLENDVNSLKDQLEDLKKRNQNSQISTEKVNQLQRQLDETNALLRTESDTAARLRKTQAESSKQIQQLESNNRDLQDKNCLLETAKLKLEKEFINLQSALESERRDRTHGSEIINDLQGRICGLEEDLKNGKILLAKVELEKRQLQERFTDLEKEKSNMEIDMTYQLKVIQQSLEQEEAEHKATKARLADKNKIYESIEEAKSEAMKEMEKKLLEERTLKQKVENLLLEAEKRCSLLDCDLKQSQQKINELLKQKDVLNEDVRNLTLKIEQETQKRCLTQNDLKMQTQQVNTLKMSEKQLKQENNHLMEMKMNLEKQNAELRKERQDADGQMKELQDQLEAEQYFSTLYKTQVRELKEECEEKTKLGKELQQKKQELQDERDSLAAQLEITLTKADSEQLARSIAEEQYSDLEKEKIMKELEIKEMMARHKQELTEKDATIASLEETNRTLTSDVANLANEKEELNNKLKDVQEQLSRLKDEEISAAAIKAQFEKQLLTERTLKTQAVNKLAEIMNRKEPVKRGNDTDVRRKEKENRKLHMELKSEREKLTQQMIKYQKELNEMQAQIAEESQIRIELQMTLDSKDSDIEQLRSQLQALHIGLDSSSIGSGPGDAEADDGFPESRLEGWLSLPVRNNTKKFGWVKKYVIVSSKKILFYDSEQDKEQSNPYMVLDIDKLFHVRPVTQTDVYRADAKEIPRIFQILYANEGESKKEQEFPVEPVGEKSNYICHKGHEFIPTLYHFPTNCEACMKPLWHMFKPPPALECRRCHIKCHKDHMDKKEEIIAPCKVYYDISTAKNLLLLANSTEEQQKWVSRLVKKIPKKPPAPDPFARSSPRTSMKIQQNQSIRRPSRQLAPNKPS

For the experiment, the target named is ROCK2 (Homo sapiens (Human), UniProt O75116). As to the kind of experiment: ROCK assay (LABCHIP 3000 peptide phosphorylation assay). Type of experiment: biochemical. The following applies: 5 μM ATP, 1.5 μM peptide substrate, dose-response. As for the experimental part:
The effectiveness of compounds of the present invention as ROCK inhibitors can be determined in a 30 μL assay containing 20 mM HEPES, pH 7.5, 20 mM MgCl2, 0.015% Brij-35, 4 mM DTT, 5 μM ATP and 1.5 μM peptide substrate (FITC-AHA-AKRRRLSSLRA-OH) (SEQ ID No. 1). Compounds were dissolved in DMSO so that the final concentration of DMSO was <2%, and the reaction was initiated with Rho kinase variants. After incubation, the reaction was terminated by the addition of EDTA and the phosphorylated and non-phosphorylated peptides separated using a LABCHIP® 3000 Reader (Caliper Life Sciences). […] Compounds were tested in dose-response format, and the inhibition of kinase activity was calculated at each concentration of compound. The inhibition data were fit using a curve-fitting program to determine the IC50; i.e., the concentration of compound required to inhibit 50% of kinase activity.
For the compound `Cc1sc(NC(=O)Cc2ccc(Oc3ncccc3C(N)=O)c(F)c2)nc1-c1cncnc1` [Example 041, 2-(2-fluoro-4-(2-((5-methyl-4-(pyrimidin-5-yl)thiazol-2-yl)amino)-2-oxoethyl)phenoxy)nico-tinamide], the IC50 amounted to 0.175 µM.

In turn, `COc1cccn2nc(NC(=O)Cc3ccc(Oc4ncccc4C(N)=O)c(Cl)c3)nc12` [Example 082, 2-(2-chloro-4-(2-((8-methoxy-[1,2,4]triazolo[1,5-a]pyridin-2-yl)amino)-2-oxoethyl)phenoxy) nicotinamide] gave an IC50 of 0.006 µM. Compared with the last compound, the IC50 is about 29-fold lower.

As to `Cc1sc(NC(=O)Cc2ccc(Oc3ncccc3C(N)=O)c(Cl)c2)nc1-c1cccnc1F` [Example 102, 2-(2-chloro-4-(2-((4-(2-fluoropyridin-3-yl)-5-methylthiazol-2-yl)amino)-2-oxoethyl)phenoxy) nicotinamide], 0.012 µM corresponded to half-maximal inhibition (IC50). This IC50 is about 2-fold higher than that of the compound before.

Compound `NC(=O)c1cccnc1Oc1ccc(CC(=O)Nc2nc(-c3cccc(F)c3)cs2)cc1` [Example 064, 2-(4-(2-((4-(3-fluorophenyl)thia-zol-2-yl)amino)-2-oxoethyl)phenoxy) nicotinamide] displayed an IC50 of 0.423 µM.

Consider `NC(=O)c1cccnc1Oc1ccc(CC(=O)Nc2nc3cccc(Cl)c3[nH]2)cc1` [Example 073, 2-(4-(2-((7-chloro-1H-benzo[d]imidazol-2-yl)amino)-2-oxoethyl)phenoxy) nicotinamide], for which the IC50 is 0.244 µM. Against the preceding compound, the IC50 is about 1.7-fold lower.

`Cc1n[nH]c(C)c1-c1ccc2sc(NC(=O)Cc3ccc(Oc4ncccc4C(N)=O)c(F)c3)nc2c1` [Example 005, 2-(4-(2-((5-(3,5-dimethyl-1H-pyrazol-4-yl)benzo[d]thiazol-2-yl)amino)-2-oxoethyl)-2-fluorophenoxy)nic-otinamide]: the IC50 is 0.01 µM.

`COC(=O)c1ccc2nc(NC(=O)Cc3ccc(Oc4ncccc4C(N)=O)cc3)sc2c1` [Example 070, methyl 2-(2-(4-((3-carbamoylpyridin-2-yl)oxy)phenyl)acet-amido)benzo[d]thi-azole-6-carboxylate] came in with an IC50 of 0.057 µM.

In the case of `NC(=O)c1cccnc1Oc1ccc(CC(=O)Nc2nc3ccccc3o2)cc1` [Example 054, 2-(4-(2-(benzo[d]oxazol-2-ylamino)-2-oxoethyl)phenoxy) nicotinamide], the half-maximal inhibitory concentration (IC50) came out at 0.364 µM.

As for `NC(=O)c1cccnc1Oc1ccc(CC(=O)Nc2nc3c(OC(F)F)cccn3n2)cc1F` [Example 139, 2-(4-(2-((8-(difluoromethoxy)-[1,2,4]triazolo[1,5-a]pyridin-2-yl)amino)-2-oxoethyl)-2-fluorophenoxy)nicotinamide], the IC50 worked out at 0.025 µM. This IC50 is about 15-fold lower than that of the compound before.

With `NC(=O)c1cccnc1Oc1ccc(CC(=O)Nc2nc(-c3cc[nH]c(=O)c3)cs2)cc1F` [Example 018, 2-(2-fluoro-4-(2-oxo-2-((4-(2-oxo-1,2-dihydropyridin-4-yl)thiazol-2-yl)amino)ethyl)phenoxy)nicotinamide], the IC50 was 0.245 µM.

Take `COc1cc(CC(=O)Nc2nc3cc(OCC(C)(C)O)ccc3s2)ccc1Oc1ncccc1C(N)=O` [Example 118, 2-(4-(2-((5-(2-hydroxy-2-methylpropoxy)benzo[d]thiazol-2-yl)amino)-2-oxoethyl)-2-methoxyphenoxy)nicotinamide]: the IC50 came to 0.65 µM.

In the case of `COc1ccc2nc(NC(=O)Cc3ccc(Oc4ncccc4C(N)=O)c(F)c3)n(CC3CC3)c2c1` [Example 160, 2-(4-(2-((1-(cyclopropyl-methyl)-6-methoxy-1H-benzo[d]-imidazol-2-yl)-amino)-2-oxoethyl)-2-fluorophenoxy)-nicotinamide], the midpoint of inhibition, the IC50, lay at 0.039 µM.

`Cc1sc(NC(=O)Cc2ccc(Oc3ncccc3C(N)=O)c(Cl)c2)nc1-c1ccc(Cl)nc1` [Example 105, 2-(2-chloro-4-(2-((4-(6-chloropyridin-3-yl)-5-methylthiazol-2-yl)amino)-2-oxoethyl)phenoxy) nicotinamide] returned an IC50 of 0.015 µM.

As to `NC(=O)c1cccnc1Oc1ccc(CC(=O)Nc2cn3cc(Br)ccc3n2)cc1Cl` [Example 009, 2-(4-(2-((6-bromoimidazo[1,2-a]pyridin-2-yl)amino)-2-oxoethyl)-2-chlorophenoxy)nicotinamide], the IC50 is 0.035 µM.

In turn, `Cc1ccc2[nH]c(NC(=O)Cc3ccc(Oc4ncccc4C(N)=O)cc3)nc2c1` [Example 068, 2-(4-(2-((5-methyl-1H-benzo[d]imidazol-2-yl)amino)-2-oxoethyl)phenoxy) nicotinamide] came in with a half-inhibitory concentration (IC50) of 0.6 µM.

`COc1ccc2sc(NC(=O)Cc3ccc(Oc4ncccc4C(N)=O)c(OC)c3)nc2c1` [Example 117, 2-(2-methoxy-4-(2-((5-methoxybenzo[d]thiazol-2-yl)amino)-2-oxoethyl)phenoxy)nicotinamide] yielded an IC50 of 0.139 µM.

Compound `NC(=O)c1cccnc1Oc1ccc(CC(=O)Nc2nc3ccc(F)cc3n2CC2CC2)cc1Cl` [Example 172, 2-(2-chloro-4-(2-((1-(cyclopropyl-methyl)-6-fluoro-1H-benzo[d]-imidazol-2-yl)-amino)-2-oxo-ethyl)phenoxy)-nicotinamide] displayed an IC50 of 0.007 µM.

The compound `CCCS(=O)(=O)c1ccc2[nH]c(NC(=O)Cc3ccc(Oc4ncccc4C(N)=O)cc3)nc2c1` [Example 069, 2-(4-(2-oxo-2-((5-(propylsulfonyl)-1H-benzo[d]imidazol-2-yl)amino)ethyl)phe-noxy)nicotinamide] had an IC50 of 0.558 µM.

The compound `NC(=O)c1cccnc1Oc1ccc(CC(=O)Nc2nc(-c3cccc(OC(F)(F)F)c3)cs2)cc1` [Example 062] yielded a half-maximal inhibitory concentration (IC50) of 0.863 µM.

With `COC(=O)c1ccc2c(c1)nc(NC(=O)Cc1ccc(Oc3ncccc3C(N)=O)cc1)n2C` [Example 074, methyl 2-(2-(4-((3-carbamoylpyridin-2-yl)oxy)phenyl)acet-amido)-1-methyl-1H-benzo[d]imidazole-5-carboxylate], half-maximal inhibition (IC50) was put at 1.1 µM.

Compound `Cc1sc(NC(=O)Cc2ccc(Oc3ncccc3C(N)=O)c(Cl)c2)nc1-c1ccccc1F` [Example 080, 2-(2-chloro-4-(2-((4-(2-fluorophenyl)-5-methylthiazol-2-yl)amino)-2-oxoethyl)phenoxy) nicotinamide] showed an IC50 of 0.015 µM.

`Cc1nn(C)c(-c2ccc3sc(NC(=O)Cc4ccc(Oc5ncccc5C(N)=O)c(F)c4)nc3c2)c1C` [Example 027, 2-(2-fluoro-4-(2-oxo-2-((5-(1,3,4-trimethyl-1H-pyrazol-5-yl)benzo[d]thiazol-2-yl)amino)ethyl)phenoxy) nicotinamide]: the IC50 was 0.005 µM. This IC50 lies about 3-fold lower than the previous one.

`Cn1cc(-c2ccc3nc(NC(=O)Cc4ccc(Oc5ncccc5C(N)=O)c(Cl)c4)cn3c2)cn1` [Example 037, 2-(2-chloro-4-(2-((6-(1-methyl-1H-pyrazol-4-yl)imidazo[1,2-a]pyridin-2-yl)amino)-2-oxoethyl)phenoxy)nico-tinamide]: 0.034 µM corresponded to half-maximal inhibition (IC50).

`CP(C)(=O)c1ccc2c(c1)nc(NC(=O)Cc1ccc(Oc3ncccc3C(N)=O)c(F)c1)n2CC(F)(F)F` [Example 148, 2-(4-(2-((5-(dimethyl-phosphoryl)-1-(2,2,2-trifluoroethyl)-1H-benzo[d]imidazol-2-yl)amino)-2-oxoethyl)-2-fluorophenoxy)-nicotinamide] had an IC50 of 0.147 µM.

`Cc1sc(NC(=O)Cc2ccc(Oc3ncccc3C(N)=O)c(Cl)c2)nc1-c1cnn(C)c1` [Example 104, 2-(2-chloro-4-(2-((5-methyl-4-(1-methyl-1H-pyrazol-4-yl)thiazol-2-yl)amino)-2-oxoethyl)phenoxy) nicotinamide] yielded an IC50 of 0.007 µM.

As for `NC(=O)c1cccnc1Oc1ccc(CC(=O)Nc2nc(C3CC3)ns2)cc1F` [Example 101, 2-(4-(2-((3-cyclopropyl-1,2,4-thiadiazol-5-yl)amino)-2-oxoethyl)-2-fluorophenoxy)nico-tinamide], 0.261 µM corresponded to half-maximal inhibition (IC50).

Take `NC(=O)c1cccnc1Oc1ccc(CC(=O)Nc2nc3ccccc3n2CCC(F)(F)F)cc1F` [Example 154, 2-(2-fluoro-4-(2-oxo-2-((1-(3,3,3-trifluoropropyl)-1H-benzo[d]-imidazol-2-yl)-amino)ethyl)-phenoxy)nicotin-amide]: the IC50 worked out at 0.042 µM.

`COc1ccn2nc(NC(=O)Cc3ccc(Oc4ncccc4C(N)=O)c(Br)c3)nc2c1` [Example 119, 2-(2-bromo-4-(2-((7-methoxy-[1,2,4]triazolo[1,5-a]pyridin-2-yl)amino)-2-oxoethyl)phenoxy)nicotinamide] gave a half-inhibitory concentration (IC50) of 0.006 µM.

The compound `CN1CCc2sc(NC(=O)Cc3ccc(Oc4ncccc4C(N)=O)c(F)c3)nc2C1` [Example 084, 2-(2-fluoro-4-(2-((5-methyl-4,5,6,7-tetrahydrothiazolo [4,5-c]pyridin-2-yl)amino)-2-oxoethyl)phenoxy) nicotinamide] came in with a half-inhibitory concentration (IC50) of 0.947 µM.

On to `Cc1nc(NC(=O)Cc2ccc(Oc3ncccc3C(N)=O)c(F)c2)sc1-c1ccccn1` [Example 012, 2-(2-fluoro-4-(2-((4-methyl-5-(pyridin-2-yl)thiazol-2-yl)amino)-2-oxoethyl)phenoxy)nic-otinamide], for which the IC50 came to 0.038 µM.

In turn, `NC(=O)c1cccnc1Oc1ccc(CC(=O)Nc2nc3ccc(F)cn3n2)cc1F` [Example 128, 2-(2-fluoro-4-(2-((6-fluoro-[1,2,4]-triazolo[1,5-a]-pyridin-2-yl)amino)-2-oxoethyl)phenoxy)-nicotinamide] returned an IC50 of 0.301 µM. This IC50 is about 7.9-fold higher than that of the compound before.

`COc1ccc(-c2csc(NC(=O)Cc3ccc(Oc4ncccc4C(N)=O)cc3)n2)cc1OC` [Example 051, 2-(4-(2-((4-(3,4-dimethoxyphenyl)thiazol-2-yl)amino)-2-oxoethyl)phenoxy) nicotinamide] showed an IC50 of 0.145 µM.

Source of the values: patent US11306081B2, “Phenylacetamides as inhibitors of rock” (BRISTOL-MYERS SQUIBB COMPANY, priority 2017, dated 2022).
